Test results as given in patent US8372823B2, “Tetracyclic inhibitors of fatty acid amide hydrolase” (The Scripps Research Institute, priority 2007, dated 2013).
pIC50, pKi: −log10 of the molar value.

How the values were obtained:
Type in all cases: biochemical
[1] = molecular target: T1, purified recombinant rat FAAH (Rattus norvegicus, UniProt P97612); assay: FAAH enzyme assay, Ki (Dixon plot), rat FAAH
T1 construct: made in house; host or cells: E. coli
T1 sequence (P97612 1-579): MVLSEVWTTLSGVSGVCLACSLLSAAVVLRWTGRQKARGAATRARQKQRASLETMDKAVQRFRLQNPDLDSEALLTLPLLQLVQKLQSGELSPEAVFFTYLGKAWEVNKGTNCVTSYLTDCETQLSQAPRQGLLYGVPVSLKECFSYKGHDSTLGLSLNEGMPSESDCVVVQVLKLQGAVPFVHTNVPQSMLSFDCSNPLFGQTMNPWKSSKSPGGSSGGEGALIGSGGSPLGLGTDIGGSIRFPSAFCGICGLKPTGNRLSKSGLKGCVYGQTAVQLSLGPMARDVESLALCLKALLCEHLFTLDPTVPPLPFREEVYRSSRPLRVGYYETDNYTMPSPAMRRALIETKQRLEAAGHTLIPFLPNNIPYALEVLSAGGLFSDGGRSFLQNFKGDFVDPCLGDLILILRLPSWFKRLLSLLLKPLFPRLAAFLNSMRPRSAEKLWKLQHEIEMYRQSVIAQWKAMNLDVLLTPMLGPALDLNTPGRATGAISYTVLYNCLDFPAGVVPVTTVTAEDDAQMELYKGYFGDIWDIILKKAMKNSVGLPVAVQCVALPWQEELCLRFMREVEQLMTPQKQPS

rat FAAH = molecular target: T2, rat FAAH (Rattus norvegicus, UniProt P97612); assay: FAAH inhibition IC50, rat; settings: inhibition at 3-5 test compound concentrations
T2 construct: made in house; host or cells: E. coli
T2 sequence (P97612 1-579): T1 sequence (P97612 1-579)
Experimental: (§1) Enzyme assays were performed at 20-23° C. with purified recombinant rat FAAH expressed in E. coli (Patricelli, M. P.; Lashuel, H. A.; et al. Biochemistry 1998, 37, 15177-15187) (unless indicated otherwise) or with solubilized COS-7 membrane extracts from cells transiently transfected with human FAAH cDNA (Giang, D. K.; Cravatt, B. F. Proc. Natl. Acad. Sci. U.S.A. 1997, 94, 2238-2242) (where specifically indicated) in a buffer of 125 mM Tris/1 mM EDTA/0.2% glycerol/0.02% Triton X-100/0.4 mM Hepes, pH 9.0 buffer (Patricelli, M. P.; Patterson, J. P.; et al. Bioorg. Med. Chem. Lett. 1998, 8, 613-618). […] NT=no data available.
(§2) IC50 values were determined from the inhibition observed at 3-5 different test compound concentrations (from three or more trials at each concentration) using the formula IC50=[I]/[K0/Ki)-1], where K0 is the control reaction rate without inhibitor and Ki is the rate with test compound at concentration [I] (Conde-Frieboes, K. et al. J. Am. Chem. Soc. 1996, 118, 5519-5525). NT=no data available.

FAAH = molecular target: T3, FAAH (Homo sapiens, UniProt O00519); assay: FAAH inhibition IC50, human; parameters: expressed in transfected cells; host or cells: COS-7 (transient transfection), solubilized membrane extracts; settings: inhibition at 3-5 test compound concentrations
T3 sequence (O00519 1-579): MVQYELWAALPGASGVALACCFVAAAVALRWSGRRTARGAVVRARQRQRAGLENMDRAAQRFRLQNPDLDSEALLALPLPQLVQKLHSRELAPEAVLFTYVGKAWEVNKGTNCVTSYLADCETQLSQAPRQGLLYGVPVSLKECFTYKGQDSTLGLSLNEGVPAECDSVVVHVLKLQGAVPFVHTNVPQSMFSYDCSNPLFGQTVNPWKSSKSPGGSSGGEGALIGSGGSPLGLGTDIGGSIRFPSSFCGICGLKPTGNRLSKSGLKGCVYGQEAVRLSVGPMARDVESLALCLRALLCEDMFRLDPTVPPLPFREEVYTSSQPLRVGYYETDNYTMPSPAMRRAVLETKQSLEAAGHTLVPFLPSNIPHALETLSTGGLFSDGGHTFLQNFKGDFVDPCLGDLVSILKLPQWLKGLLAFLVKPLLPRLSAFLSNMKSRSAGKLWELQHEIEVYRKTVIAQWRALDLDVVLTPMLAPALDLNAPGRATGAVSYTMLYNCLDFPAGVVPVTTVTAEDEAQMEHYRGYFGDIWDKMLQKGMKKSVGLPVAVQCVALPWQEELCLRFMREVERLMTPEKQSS
Experimental: as §1, §2

[2] = purified recombinant rat FAAH expressed in E. coli, 14C-oleamide hydrolysis, pH 9.0, 20-23° C.

Row | SMILES | pKi [1, 2] | pIC50 (rat FAAH) | pIC50 (FAAH) | pKi ([1]; pH 9)
1 | COC(=O)c1ccc(-c2cnc(C(=O)CCc3ccc(Oc4ccccc4)cc3)o2)nc1 [Example 13, 6-{2-[3-(4-Phenoxy-phenyl)-propionyl]-oxazol-5-yl}-nicotinic acid methyl ester] | 7.27 | 8.22 | 8.52 | 
2 | O=C(O)c1ccc(-c2cnc(C(=O)CCc3ccc(-c4ccccc4)cc3)o2)nc1 [Example 25, 6-[2-(3-Biphenyl-4-yl-propionyl)-oxazol-5-yl]-nicotinic acid] |  | 9.52 | 9.30 | 7.85
3 | O=C(O)c1cccc(-c2cnc(C(=O)CCc3ccc(-c4ccc(CN5CCCCC5)cc4)cc3)o2)n1 [Example 40, 6-{2-[3-(4′-Piperidin-1-ylmethyl-biphenyl-4-yl)-propionyl]-oxazol-5-yl}-pyridine-2-carboxylic acid] | 7.36 |  |  | 
4 | O=C(COc1ccc(OCc2ccccc2)cc1)c1ncc(-c2ccccn2)o1 [Example 11b, 2-(4-(Benzyloxy)phenoxy)-1-(5-(pyridin-2-yl)oxazol-2-yl)ethanone] | 5.28 |  |  | 
5 | O=C(COc1cccc(OCc2ccccc2)c1)c1ncc(-c2ccccn2)o1 [Example 11d, 2-(3-(Benzyloxy)phenoxy)-1-(5-(pyridin-2-yl)oxazol-2-yl)ethanone] | 5.68 |  |  | 
6 | COC(=O)c1cccc(-c2cnc(C(=O)CCc3ccc(-c4ccc(CN5CCOCC5)cc4)cc3)o2)n1 [Example 35, 6-{2-[3-(4′-Morpholin-4-ylmethyl-biphenyl-4-yl)-propionyl]-oxazol-5-yl}-pyridine-2-carboxylic acid methyl ester] | 7.51 | 8.70 | 7.68 | 
7 | O=C(O)c1ccc(-c2cnc(C(=O)CCc3ccc(-c4ccccc4)cc3)o2)cn1 [Example 33, 5-[2-(3-Biphenyl-4-yl-propionyl)-oxazol-5-yl]-pyridine-2-carboxylic acid] | 7.36 | 7.36 | 6.24 | 
8 | O=C(CCc1cccc(OCc2ccccc2)c1)c1ncc(-c2ccccn2)o1 [Example 11c, 1-Oxo-1-[5-(2-pyridyl)oxazol-2-yl]-3-(3-(benzyloxy)phenyl)-propane] | 7.60 |  |  | 
9 | O=C(O)c1cc(-c2cnc(C(=O)CCc3ccc(-c4ccccc4)cc3)o2)ccn1 [Example 29, 4-[2-(3-Biphenyl-4-yl-propionyl)-oxazol-5-yl]-pyridine-2-carboxylic acid] | 7.30 | 8.52 | 8.15 | 
10 | COC(=O)c1cccc(-c2cnc(C(=O)CCc3ccc(-c4ccc(CN5CCCCC5)cc4)cc3)o2)n1 [Example 34, 6-{2-[3-(4′-Piperidin-1-ylmethyl-biphenyl-4-yl)-propionyl]-oxazol-5-yl}-pyridine-2-carboxylic acid methyl ester] | 8.05 |  |  | 
11 | COC(=O)c1cccc(-c2cnc(C(=O)CCc3ccc(-c4ccc(CN5CCN(C)CC5)cc4)cc3)o2)n1 [Example 39, 6-(2-{3-[4′-(4-Methyl-piperazin-1-ylmethyl)-biphenyl-4-yl]-propionyl}-oxazol-5-yl)-pyridine-2-carboxylic acid methyl ester] | 6.70 |  |  | 
12 | COC(=O)c1cccc(-c2cnc(C(=O)CCc3ccc(-c4ccc(CN5CCCC5)cc4)cc3)o2)n1 [Example 37] | 7.74 |  |  | 
13 | O=C(O)c1cccc(-c2cnc(C(=O)CCc3ccc(-c4ccc(CN5CCCC5)cc4)cc3)o2)n1 [Example 43, 6-{2-[3-(4′-Pyrrolidin-1-ylmethyl-biphenyl-4-yl)-propionyl]-oxazol-5-yl}-pyridine-2-carboxylic acid] | 6.90 |  |  | 
14 | O=C(O)c1cccc(-c2cnc(C(=O)CCc3ccc(-c4ccc(CN5CCSCC5)cc4)cc3)o2)n1 [Example 42, 6-{2-[3-(4′-Thiomorpholin-4-ylmethyl-biphenyl-4-yl)-propionyl]-oxazol-5-yl}-pyridine-2-carboxylic acid] | 7.55 |  |  | 
15 | CN1CCN(Cc2ccc(-c3ccc(CCC(=O)c4ncc(-c5cccc(C(=O)O)n5)o4)cc3)cc2)CC1 [Example 45, 6-(2-{3-[4′-(4-Methyl-piperazin-1-ylmethyl)-biphenyl-4-yl]-propionyl}-oxazol-5-yl)-pyridine-2-carboxylic acid] | 5.91 |  |  | 
16 | CN(C)Cc1ccc(-c2ccc(CCC(=O)c3ncc(-c4cccc(C(=O)O)n4)o3)cc2)cc1 [Example 44, 6-{2-[3-(4′-Dimethylaminomethyl-biphenyl-4-yl)-propionyl]-oxazol-5-yl}-pyridine-2-carboxylic acid] | 6.82 |  |  | 
17 | O=C(CCc1ccc(COc2ccccc2)cc1)c1ncc(-c2cccc(-c3nnn[nH]3)n2)o1 [Example 47, 3-(4-Phenoxymethyl-phenyl)-1-{5-[6-(1H-tetrazol-5-yl)-pyridin-2-yl]-oxazol-2-yl}-propan-1-one] | 7.68 |  |  | 
18 | COC(=O)c1cccc(-c2cnc(C(=O)CCc3ccc(-c4ccc(CN(C)C)cc4)cc3)o2)n1 [Example 38] | 7.54 |  |  | 

Further lines, with some results ahead:

Row | pKi [1, 2] | pIC50 (rat FAAH) | pIC50 (FAAH) | SMILES | pKi ([1]; pH 9)
19 | 8.30 |  |  | COC(=O)c1cccc(-c2cnc(C(=O)CCc3ccc(-c4ccc(CN5CCSCC5)cc4)cc3)o2)n1 [Example 36, 6-{2-[3-(4′-Thiomorpholin-4-ylmethyl-biphenyl-4-yl)-propionyl]-oxazol-5-yl}-pyridine-2-carboxylic acid methyl ester] | 
20 | 8.66 |  |  | O=C(CCc1ccc(Sc2ccccc2)cc1)c1ncc(-c2ccccn2)o1 [Example 11i, 1-Oxo-1-[5-(2-pyridyl)oxazol-2-yl]-3-(4-(phenylthio)phenyl)propane] | 
21 | 8.46 | 8.60 | 9.10 | COC(=O)c1ccc(-c2cnc(C(=O)CCc3ccc(COc4ccccc4)cc3)o2)nc1 [Example 17] | 
22 | 8.82 | 9.30 | 9.40 | NC(=O)c1ccc(-c2cnc(C(=O)CCc3ccc(-c4ccccc4)cc3)o2)nc1 [Example 27, 6-[2-(3-Biphenyl-4-yl-propionyl)-oxazol-5-yl]-nicotinamide] | 
23 | 8.70 | 9.00 | 8.92 | COC(=O)c1cccc(-c2cnc(C(=O)CCc3ccc(COc4ccccc4)cc3)o2)n1 [Example 16, 6-{2-[3-(4-Phenoxymethyl-phenyl)-propionyl]-oxazol-5-yl}-pyridine-2-carboxylic acid methyl ester] | 
24 | 8.47 |  |  | O=C(CCc1ccc(Oc2ccccc2)cc1)c1ncc(-c2ccccn2)o1 [Example 11f, 1-Oxo-1-[5-(2-pyridyl)oxazol-2-yl]-3-(4-phenoxyphenyl)propane] | 
25 | 8.64 | 8.52 | 7.80 | O=C(CCc1ccc(-c2ccccc2)cc1)c1ncc(-c2ccncc2)o1 [Example 30, 3-Biphenyl-4-yl-1-(5-pyridin-4-yl-oxazol-2-yl)-propan-1-one] | 
26 | 8.49 |  |  | O=C(CCc1ccc(Cc2ccccc2)cc1)c1ncc(-c2ccccn2)o1 [Example 11h, 1-Oxo-1-[5-(2-pyridyl)oxazol-2-yl]-3-(4-benzylphenyl)propane] | 
27 | 8.52 |  |  | N#Cc1cccc(-c2cnc(C(=O)CCc3ccc(COc4ccccc4)cc3)o2)n1 [Example 48] | 
28 | 8.70 |  |  | O=C(CCc1ccc(Nc2ccccc2)cc1)c1ncc(-c2ccccn2)o1 [Example 11g, 1-Oxo-1-[5-(2-pyridyl)oxazol-2-yl]-3-(4-(phenylamino)phenyl)-propane] | 
